According to patent US5240941A, “Thioxo quinoline compounds, composition and method of use” (ICI Pharma, priority 1990, dated 1993):

Key:
5-LO [1] = assay: Test b) heparinised human blood, A23187 challenge, LTB4 radioimmunoassay; format: cell-based
Procedure: b) An in vitro assay system involving incubating a test compound with heparinised human blood, prior to challenge with the calcium ionophore A23187 and then indirectly measuring the inhibitory effects on 5-LO by assaying the amount of LTB4 using specific radioimmunoassays described by Carey and Forder (F. Carey and R. A. Forder, Prostaglandins Leukotrienes Med., 1986, 22, 57; Prostaglandins,1984, 28, 666; Brit. J. Pharmacol. 1985, 84, 34P) which involve the use of a protein-LTB4 conjugate produced using the procedure of Young et alia (Prostaglandins, 1983, 26(4), 605-613). The effects of a test compound on the enzyme cyclooxygenase (which is involved in the alternative metabolic pathway for arachidonic acid and gives rise to prostaglandins, thromboxanes and related metabolites) may be measured at the same time using the specific radioimmunoassay for thromboxane B2 (TxB2) described by Carey and Forder (see above). This test provides an indication of the effects of a test compound against 5-LO and also cyclooxygenase in the presence of blood cells and proteins. It permits the selectivity of the inhibitory effect on 5-LO or cyclooxygenase to be assessed.

5-LO [2] = assay: Test g) zymosan-induced LTB4 liberation in air pouch of male rats; format: in vivo; conditions: 3 h; test g), rat air pouch, oral
Procedure: g) An in vivo system involving measuring the effects of a test compound administered orally against the liberation of LTB4 induced by zymosan within an air pouch generated within the subcutaneous tissue of the back of male rats. The rats are anaesthetised and air pouches are formed by the injection of sterile air (20 ml). A further injection of air (10 ml) is similarly given after 3 days. At 6 days after the initial air injection the test compound is administered (usually orally as the suspension produced when a solution of the test compound in dimethylsulphoxide is added to hydroxypropylmethylcellulose), followed by the intrapouch injection of zymosan (1 ml of a 1% suspension in physiological saline). After 3 hours the rats are killed, the air pouches are lavaged with physiological saline, and the specific radioimmunoassay described above is used to assay LTB4 in the washings. This test provides an indication of inhibitory effects against 5-LO in an inflammatory milieu.

Structure (SMILES) | IC50 (5-LO [1]) [nM] | ED50 (5-LO [2]) [mg/kg]
COC1(c2cc(F)cc(OCc3ccc4c(c3)CCC(=S)N4C)c2)CCOCC1 [4-[5-fluoro-3-(1-methyl-2-thioxo-1,2,3,4-tetrahydroquinolin-6-ylmethoxy)phenyl]-4-methoxytetrahydropyran] | 100 | 1.5
COC1(c2cc(F)cc(Sc3ccc4c(c3)CCC(=S)N4C)c2)CCOCC1 [4-[5-fluoro-3-(1-methyl-2-thioxo-1,2,3,4-tetrahydroquinolin-6-ylthio)phenyl]-4-methoxytetrahydropyran] | 50 | 0.5
